PubChem BioAssay AID1919004 (Molecular Pharmacology Branch, DTP, NCI, 2023)

Test system: 883617-216-R-J1-PDC complex spheroids, growth, % test/control
Assay: Anticancer human tumor 883617-216-R-J1-PDC patient-derived bladder carcinoma cell line growth inhibition [AhR]
Conditions: for IC50: curve of first compound; for viability, T/C: stronger effect = lower value
In short: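 Complex tumor spheroids co-cultured with HUVEC and human MSC stroma; AhR antagonists tested in combination with standard-of-care and investigational agents. Top concentration at or near clinical Cmax (else 10 microM), half-log dilutions; growth expressed as percent test/control.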
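Also: exposure lasted 7 days after dosing on day 3 of spheroid growth.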

## CC1COCCN1c1cc(C2(S(C)(=N)=O)CC2)nc(-c2ccnc3[nH]ccc23)n1 (stereo not given) + Cc1cncc(-c2nc(NCCc3c[nH]c4ccccc34)c3ncn(C(C)C)c3n2)c1
Second compound 0.1 µM
  IC50: > 10 µM
Second compound 0.316 µM
  IC50: > 10 µM
Second compound 1 µM
  IC50: > 10 µM
Second compound 3.16 µM
  IC50: > 10 µM
Second compound 10 µM
  IC50: 1.19 µM
Second compound 0.1 µM, first compound 0.0316 µM
  viability, T/C: 88.1%
Second compound 0.1 µM, first compound 0.1 µM
  viability, T/C: 90.5%
Second compound 0.1 µM, first compound 0.316 µM
  viability, T/C: 84.3%
Second compound 0.1 µM, first compound 1 µM
  viability, T/C: 84.8%
Second compound 0.1 µM, first compound 3.16 µM
  viability, T/C: 78.3%
Second compound 0.1 µM, first compound 10 µM
  viability, T/C: 58.2%
Second compound 0.316 µM, first compound 0.0316 µM
  viability, T/C: 92.4%
Second compound 0.316 µM, first compound 0.1 µM
  viability, T/C: 95.6%
Second compound 0.316 µM, first compound 0.316 µM
  viability, T/C: 92.3%
Second compound 0.316 µM, first compound 1 µM
  viability, T/C: 82.1%
Second compound 0.316 µM, first compound 3.16 µM
  viability, T/C: 69.3%
Second compound 0.316 µM, first compound 10 µM
  viability, T/C: 54.3%
Second compound 1 µM, first compound 0.0316 µM
  viability, T/C: 95.8%
Second compound 1 µM, first compound 0.1 µM
  viability, T/C: 100%
Second compound 1 µM, first compound 0.316 µM
  viability, T/C: 100%
Second compound 1 µM, first compound 1 µM
  viability, T/C: 94.9%
Second compound 1 µM, first compound 3.16 µM
  viability, T/C: 81.7%
Second compound 1 µM, first compound 10 µM
  viability, T/C: 62.9%
Second compound 3.16 µM, first compound 0.0316 µM
  viability, T/C: 103%
Second compound 3.16 µM, first compound 0.1 µM
  viability, T/C: 113%
Second compound 3.16 µM, first compound 0.316 µM
  viability, T/C: 100%
Second compound 3.16 µM, first compound 1 µM
  viability, T/C: 94.2%
Second compound 3.16 µM, first compound 3.16 µM
  viability, T/C: 85%
Second compound 3.16 µM, first compound 10 µM
  viability, T/C: 54.8%
Second compound 10 µM, first compound 0.0316 µM
  viability, T/C: 57%
Second compound 10 µM, first compound 0.1 µM
  viability, T/C: 50.1%
Second compound 10 µM, first compound 0.316 µM
  viability, T/C: 59.6%
Second compound 10 µM, first compound 1 µM
  viability, T/C: 50.6%
Second compound 10 µM, first compound 3.16 µM
  viability, T/C: 42.7%
Second compound 10 µM, first compound 10 µM
  viability, T/C: 29.8%
